From patent US8232267B2, “Porphyrin catalysts and methods of use thereof” (The Trustees of Princeton University, priority 2006, dated 2012)

Assay: Stopped-flow spectrophotometric analysis of kinetics of peroxynitrite decomposition
Assay type: biochemical
Conditions: 100 mM phosphate buffer pH 7.4, 25° C.
Source text: Peroxynitrite was synthesized from hydrogen peroxide and nitrous acid using an sp250i syringe pump by modification of published procedures. See, Shimanovich, R.; Groves, J. T., Mechanisms of Peroxynitrite Decomposition Catalyzed by FeTMPS, a Bioactive Sulfonated Iron Porphyrin. Archives of Biochemistry and Biophysics 2001, 387, (2), 307-317; Saha, A.; Goldstein, S.; Cabelli, D.; Czapski, G., Determination of optimal conditions for synthesis of peroxynitrite by mixing acidified hydrogen peroxide with nitrite. Free Radical Biology & Medicine 1998, 24, (4), 653-659; and Uppu, R. M.; Squadrito, G. L.; Cueto, R.; Pryor, W. A., Selecting the most appropriate synthesis of peroxynitrite. […] Peroxynitrite concentrations were determined spectrophotometrically at 302 nm (ε302=1670 L mol^−1 cm^−1). […] In this manner, the concentration of peroxynitrite was determined to be 95 mM. […] Nitrite and nitrate anions were detected and quantified by measuring the absorbance decrease (indirect UV detection) at 310 nm. […] Concentrations of hydrogen peroxide in the peroxynitrite before and after treatment with MnO2 were measured by PeroXOquant Quantitative peroxide assay kit (Pierce Biotechnology), an assay based on the oxidation of Fe^2+ to Fe^3+ by H2O2 under acidic conditions. […]

Substance: iron(III) chloride meso-tetrakis-2(N-(N-(2-methoxyethyl)acetamido)pyridyl porphyrin [Test porphyrin]
- kcat: 1.4e+07 M⁻¹ s⁻¹
